A word on the inhibition: it is the change of the read-out against control, counted positive when it falls. A lower inhibition goes with little suppression. What is called Ki is the dissociation constant of the complex between target and ligand, obtained from inhibition or displacement. Read a high Ki as a looser hold on the target. As usually defined, the kinact is the maximal first-order rate at which the target is inactivated. What is called kinact/KI is the maximal inactivation rate divided by the concentration that gives half of it. Broadly, the fraction unbound is the share of the substance not bound to proteins or other matrix. Low readings indicate little free substance, high ones much free substance.

The results in this text go back to publication PMC6886544.

The target of one data set is BTK (Homo sapiens, UniProt Q06187). Briefly: SelectScreen kinase profiling, BTK. Type of data set: biochemical. The settings on record: mean ± SD of one measurement in duplicates. The protocol:
(§1) Kinase profiling of compound 17a at a concentration of 1 µM generated with the SelectScreen® Profiling Service from Life Technologies.
(§2) Figure S2. Kinase profiling of compound 17a, Illustration as waterfall plot. 9 Kinases harboring a Cysteine isostructural to Cys797 in EGFR are highlighted
(§3) Kinase % inhibition Kinase % inhibition […]
(§4) aValues are the mean ± SD of one measurement in duplicates; bKinases harboring a Cysteine isostructural to Cys797 […]
(§5) (1 picture or pasted object on this page, not shown here)

The next data set has as its target ABL1-E255K (Homo sapiens, UniProt P00519, E255K). In words: SelectScreen kinase profiling, ABL1-E255K. The class given is biochemical. The settings on record: mean ± SD of one measurement in duplicates. The protocol:
as §1, §2, §3, §4, §5

The next data set addresses ABL2 (Homo sapiens, UniProt P42684). In words: SelectScreen kinase profiling, ABL2. Type of data set: biochemical. The settings on record: mean ± SD of one measurement in duplicates. The method, then:
as §1, §2, §3, §4, §5

Another data set deals with JAK3 (Homo sapiens, UniProt P52333). Briefly: SelectScreen kinase profiling, JAK3. Type of data set: biochemical. The settings on record: mean ± SD of one measurement in duplicates. The method, then: as §1, §2, §3, §4, §5
The target of another data set is 100 kinases. In words: Kinase selectivity profiling with 100 kinases (SelectScreen). The class given is biochemical. The settings on record: screening concentration 1 μM. The method, then:
as §1, §2, §3, §4, §5

Data set [1] concerns EGFR and downstream cascade phosphorylation in H1975 cells. In words: Western blot analysis in H1975 cells. The settings on record: 1 h inhibitor then EGF stimulation. The class given is cell-based. The method, then:
and incubated at 37 °C and 5% CO2. On day 2 cells were starved over night with media containing 0.5% FBS to be incubated on day 3 for 1 h with EGFR inhibitors following an additional 30 min of EGF stimulation at 50 ng/mL. The media was discarded and cells were washed once with DPBS
1x. Using 100 μL per well of lysis buffer, cells were then scraped off and lysed while rotating (Stuart Scientific, Staffordshire, UK) for 1 h at 4 °C. […] Supernatant was transferred into new tube and protein concentrations were determined with the Bio-Rad Protein Assay (Bio-Rad Laboratories, Hercules, CA). […]
captured and quantified using a FUJI LAS3000 system with Science Lab 2001 ImageGauge 4.0 software (Fujifilm Medial Systems, Stamford CT, USA). […]
glycerol, 1 mM TCEP, pH 8) on ice for 1 h. We analyzed the aliquots by ESI-MS using an Thermo Fisher Scientific Dionex UltiMate 3000 HPLC system connected to a Thermo Fisher Scientific Velos Pro (2d ion trap). Therefore, 5 μL of sample was injected and separated using a Vydac 214TP C4 5 μm column (150 mm x 2.1 mm) starting at 20% of solvent B for 5 minutes followed by a gradient up to 90% of solvent B over 14 min with a flow rate of 210 μL/min with 0.1% TFA in water as solvent A and 0.1% TFA in MeCN as solvent B. A mass range of 700 to 2000 m/z was scanned and raw data was deconvoluted and analyzed with MagTran software (Z.Q. Zhang, A.G. […]
On the technique in general: In western blotting, separated proteins are transferred to a membrane and probed.

The next data set has as its target EGFR-wt (Homo sapiens, UniProt P00533). Briefly: SelectScreen kinase profiling, EGFR-wt. The class given is biochemical. The settings on record: mean ± SD of one measurement in duplicates. The method, then:
as §1, §2, §3, §4, §5

A further data set deals with ACVR1B (Homo sapiens, UniProt P36896). In words: SelectScreen kinase profiling, ACVR1B. Type of data set: biochemical. The settings on record: mean ± SD of one measurement in duplicates. The protocol: as §1, §2, §3, §4, §5
The target of the next data set is TXK (Homo sapiens, UniProt P42681). In words: SelectScreen kinase profiling, TXK. The class given is biochemical. The settings on record: mean ± SD of one measurement in duplicates. The protocol:
as §1, §2, §3, §4, §5

Another data set has as its target EGFR-T790M (Homo sapiens, UniProt P00533, T790M). Briefly: SelectScreen kinase profiling, EGFR-T790M. The settings on record: mean ± SD of one measurement in duplicates. Type of data set: biochemical. The method, then: as §1, §2, §3, §4, §5
The next data set concerns the target EGFR-L861Q (Homo sapiens, UniProt P00533, L861Q). Briefly: SelectScreen kinase profiling, EGFR-L861Q. The settings on record: mean ± SD of one measurement in duplicates. The class given is biochemical. The method, then:
as §1, §2, §3, §4, §5

A further data set concerns the target SRC (Homo sapiens, UniProt P12931). In words: SelectScreen kinase profiling, SRC. The settings on record: mean ± SD of one measurement in duplicates. Type of data set: biochemical. The protocol: as §1, §2, §3, §4, §5
Another data set deals with EGFR-L858R/T790M (Homo sapiens, UniProt P00533, L858R/T790M). Briefly: Kinetic characterization (Ki, kinact), EGFR-L858R/T790M.
The nature of data set [2]: Plasma protein binding, mouse. Type of data set: in vitro ADME. The settings on record: equilibrium dialysis, 37 °C. The protocol:
Assessment of plasma protein binding was measured by equilibrium dialysis by incubating plasma
based determination of final compound concentrations. […]

The next data set concerns the target EGFR-L858R (Homo sapiens, UniProt P00533, L858R). In words: Kinetic characterization (Ki, kinact), EGFR-L858R.

EGFR-L858R, sequence (P00533 25-1210 L858R): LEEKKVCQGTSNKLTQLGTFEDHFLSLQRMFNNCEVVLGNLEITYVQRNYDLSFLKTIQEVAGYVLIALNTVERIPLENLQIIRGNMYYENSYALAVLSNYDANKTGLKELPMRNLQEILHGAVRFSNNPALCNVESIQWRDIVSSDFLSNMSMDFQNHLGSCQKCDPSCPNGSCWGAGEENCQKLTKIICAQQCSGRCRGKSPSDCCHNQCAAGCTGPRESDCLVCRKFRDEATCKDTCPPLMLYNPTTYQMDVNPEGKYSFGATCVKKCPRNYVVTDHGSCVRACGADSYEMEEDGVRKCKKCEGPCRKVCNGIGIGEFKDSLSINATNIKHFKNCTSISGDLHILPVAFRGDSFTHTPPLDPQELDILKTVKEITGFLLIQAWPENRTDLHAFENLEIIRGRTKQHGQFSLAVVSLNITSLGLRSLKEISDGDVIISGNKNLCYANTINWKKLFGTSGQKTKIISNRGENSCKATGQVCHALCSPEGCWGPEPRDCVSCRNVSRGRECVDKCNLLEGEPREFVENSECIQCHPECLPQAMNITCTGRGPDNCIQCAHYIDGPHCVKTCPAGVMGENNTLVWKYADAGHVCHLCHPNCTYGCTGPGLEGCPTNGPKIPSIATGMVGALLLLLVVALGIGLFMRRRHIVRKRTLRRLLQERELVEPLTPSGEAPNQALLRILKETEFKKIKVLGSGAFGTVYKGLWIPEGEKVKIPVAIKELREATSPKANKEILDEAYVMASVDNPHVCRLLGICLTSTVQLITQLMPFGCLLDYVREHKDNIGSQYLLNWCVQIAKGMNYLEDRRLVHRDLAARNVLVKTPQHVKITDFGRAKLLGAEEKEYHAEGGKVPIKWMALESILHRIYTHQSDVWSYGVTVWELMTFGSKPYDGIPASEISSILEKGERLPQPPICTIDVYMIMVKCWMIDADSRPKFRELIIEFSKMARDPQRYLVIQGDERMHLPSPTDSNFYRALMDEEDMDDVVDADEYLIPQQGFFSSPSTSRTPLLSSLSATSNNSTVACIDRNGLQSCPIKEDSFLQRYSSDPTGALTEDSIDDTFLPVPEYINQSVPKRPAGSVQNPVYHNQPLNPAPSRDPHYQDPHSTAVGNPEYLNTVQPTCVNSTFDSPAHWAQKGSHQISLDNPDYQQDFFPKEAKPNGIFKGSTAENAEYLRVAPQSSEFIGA
EGFR-L858R/T790M, sequence (P00533 25-1210 T790M/L858R): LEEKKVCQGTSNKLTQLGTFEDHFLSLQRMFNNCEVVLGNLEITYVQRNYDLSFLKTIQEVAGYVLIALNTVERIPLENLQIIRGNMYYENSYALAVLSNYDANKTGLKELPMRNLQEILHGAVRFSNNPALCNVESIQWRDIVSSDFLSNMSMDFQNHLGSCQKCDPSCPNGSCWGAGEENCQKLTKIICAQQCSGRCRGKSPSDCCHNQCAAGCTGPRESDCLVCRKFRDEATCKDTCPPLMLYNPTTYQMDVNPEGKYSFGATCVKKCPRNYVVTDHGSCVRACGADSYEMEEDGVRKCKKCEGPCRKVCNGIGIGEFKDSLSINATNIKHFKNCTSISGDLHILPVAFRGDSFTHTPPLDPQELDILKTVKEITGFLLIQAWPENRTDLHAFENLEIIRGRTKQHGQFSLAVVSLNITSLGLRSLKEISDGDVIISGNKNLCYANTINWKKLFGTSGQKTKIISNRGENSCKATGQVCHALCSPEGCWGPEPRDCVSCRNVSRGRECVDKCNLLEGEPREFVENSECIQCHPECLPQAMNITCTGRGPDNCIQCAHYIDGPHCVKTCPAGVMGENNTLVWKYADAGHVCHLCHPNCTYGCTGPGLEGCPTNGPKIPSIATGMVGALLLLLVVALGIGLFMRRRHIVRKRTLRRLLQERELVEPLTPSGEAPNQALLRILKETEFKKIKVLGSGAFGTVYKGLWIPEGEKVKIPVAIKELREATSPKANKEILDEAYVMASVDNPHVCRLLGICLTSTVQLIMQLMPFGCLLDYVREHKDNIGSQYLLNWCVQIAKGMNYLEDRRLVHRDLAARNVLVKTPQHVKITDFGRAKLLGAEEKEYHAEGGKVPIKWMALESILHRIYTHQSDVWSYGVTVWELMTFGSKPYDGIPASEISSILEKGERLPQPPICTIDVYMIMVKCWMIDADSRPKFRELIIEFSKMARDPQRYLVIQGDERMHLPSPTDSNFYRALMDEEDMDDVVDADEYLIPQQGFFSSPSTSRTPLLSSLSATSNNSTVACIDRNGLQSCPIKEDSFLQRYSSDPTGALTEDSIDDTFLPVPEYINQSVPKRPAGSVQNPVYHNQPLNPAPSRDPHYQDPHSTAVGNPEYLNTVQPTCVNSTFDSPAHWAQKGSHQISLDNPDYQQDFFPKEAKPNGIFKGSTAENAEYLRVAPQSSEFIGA
SRC, sequence (P12931 whole entry): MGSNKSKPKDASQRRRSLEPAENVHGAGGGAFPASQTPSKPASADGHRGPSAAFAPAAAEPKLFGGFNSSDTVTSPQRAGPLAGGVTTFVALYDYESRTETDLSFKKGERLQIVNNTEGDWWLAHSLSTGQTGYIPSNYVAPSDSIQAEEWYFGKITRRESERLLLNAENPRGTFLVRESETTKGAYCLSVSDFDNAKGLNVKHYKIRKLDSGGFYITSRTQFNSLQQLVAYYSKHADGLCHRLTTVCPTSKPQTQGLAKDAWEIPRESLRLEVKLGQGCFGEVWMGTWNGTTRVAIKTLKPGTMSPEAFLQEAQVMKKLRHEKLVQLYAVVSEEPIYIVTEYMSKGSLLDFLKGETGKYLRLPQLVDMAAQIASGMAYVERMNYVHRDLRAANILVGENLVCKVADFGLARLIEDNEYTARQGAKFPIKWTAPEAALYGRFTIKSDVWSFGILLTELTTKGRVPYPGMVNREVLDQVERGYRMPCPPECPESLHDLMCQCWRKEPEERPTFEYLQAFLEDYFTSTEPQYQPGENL
EGFR-wt, sequence (P00533 25-1210): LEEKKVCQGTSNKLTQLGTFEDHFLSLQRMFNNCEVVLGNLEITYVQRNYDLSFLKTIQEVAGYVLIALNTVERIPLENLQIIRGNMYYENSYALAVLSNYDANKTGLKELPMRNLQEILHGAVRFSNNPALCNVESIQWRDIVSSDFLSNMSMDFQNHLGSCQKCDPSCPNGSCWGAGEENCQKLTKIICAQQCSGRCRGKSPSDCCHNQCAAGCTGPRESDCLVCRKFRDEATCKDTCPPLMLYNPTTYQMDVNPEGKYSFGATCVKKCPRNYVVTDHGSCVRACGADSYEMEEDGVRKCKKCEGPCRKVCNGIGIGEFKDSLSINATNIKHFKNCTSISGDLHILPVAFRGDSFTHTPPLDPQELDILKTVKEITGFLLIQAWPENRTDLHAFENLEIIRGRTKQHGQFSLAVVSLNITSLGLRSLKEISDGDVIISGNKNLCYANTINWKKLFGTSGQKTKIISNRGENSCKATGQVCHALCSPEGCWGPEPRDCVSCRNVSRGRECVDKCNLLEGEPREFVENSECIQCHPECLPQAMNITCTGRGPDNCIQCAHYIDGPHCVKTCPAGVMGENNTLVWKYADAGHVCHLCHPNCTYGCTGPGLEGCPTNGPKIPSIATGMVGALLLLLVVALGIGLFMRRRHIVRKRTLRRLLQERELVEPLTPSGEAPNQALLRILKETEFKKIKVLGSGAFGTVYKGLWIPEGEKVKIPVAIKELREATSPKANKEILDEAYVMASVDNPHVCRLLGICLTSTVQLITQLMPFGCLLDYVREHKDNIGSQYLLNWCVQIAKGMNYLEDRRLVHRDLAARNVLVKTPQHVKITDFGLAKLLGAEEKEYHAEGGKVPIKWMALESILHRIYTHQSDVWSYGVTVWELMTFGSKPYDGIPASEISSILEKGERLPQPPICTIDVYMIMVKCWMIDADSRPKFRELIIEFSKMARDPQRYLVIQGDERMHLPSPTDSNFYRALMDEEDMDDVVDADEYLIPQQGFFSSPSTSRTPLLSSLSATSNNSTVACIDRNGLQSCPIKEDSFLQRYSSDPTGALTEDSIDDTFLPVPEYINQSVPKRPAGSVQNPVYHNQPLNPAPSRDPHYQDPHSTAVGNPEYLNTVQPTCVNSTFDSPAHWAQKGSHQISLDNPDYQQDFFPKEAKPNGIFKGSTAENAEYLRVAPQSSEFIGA
ACVR1B, sequence (P36896 24-505): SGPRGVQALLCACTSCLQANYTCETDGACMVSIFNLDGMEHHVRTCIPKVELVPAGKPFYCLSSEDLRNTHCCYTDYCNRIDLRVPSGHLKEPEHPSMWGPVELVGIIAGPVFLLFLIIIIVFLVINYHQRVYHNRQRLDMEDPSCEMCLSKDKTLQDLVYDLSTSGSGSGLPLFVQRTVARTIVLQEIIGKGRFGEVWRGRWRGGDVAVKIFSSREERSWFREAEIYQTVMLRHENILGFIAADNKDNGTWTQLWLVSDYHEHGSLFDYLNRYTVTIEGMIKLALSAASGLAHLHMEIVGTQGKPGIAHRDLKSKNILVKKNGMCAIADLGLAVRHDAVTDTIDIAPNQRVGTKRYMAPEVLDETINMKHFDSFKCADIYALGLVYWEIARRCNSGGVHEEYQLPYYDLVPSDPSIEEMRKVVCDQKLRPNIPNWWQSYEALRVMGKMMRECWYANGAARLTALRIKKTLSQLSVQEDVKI
TXK, sequence (P42681 whole entry): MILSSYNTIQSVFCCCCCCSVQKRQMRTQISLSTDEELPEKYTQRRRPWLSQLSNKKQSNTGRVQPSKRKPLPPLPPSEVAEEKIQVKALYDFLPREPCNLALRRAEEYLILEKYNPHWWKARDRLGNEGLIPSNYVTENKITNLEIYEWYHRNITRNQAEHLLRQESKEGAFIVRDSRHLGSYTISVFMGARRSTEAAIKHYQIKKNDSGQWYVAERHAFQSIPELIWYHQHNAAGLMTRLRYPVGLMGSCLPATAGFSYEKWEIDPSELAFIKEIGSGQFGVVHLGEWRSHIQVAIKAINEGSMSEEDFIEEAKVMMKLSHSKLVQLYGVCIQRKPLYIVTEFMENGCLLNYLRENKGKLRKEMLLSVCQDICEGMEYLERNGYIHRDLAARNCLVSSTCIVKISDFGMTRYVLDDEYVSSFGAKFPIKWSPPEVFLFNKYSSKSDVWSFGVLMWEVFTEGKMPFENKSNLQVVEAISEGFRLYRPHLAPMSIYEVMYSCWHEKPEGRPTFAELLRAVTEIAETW

As to `C=CC(=O)Nc1cccc(-c2c(-c3ccc(CN4CCN(C)CC4)cc3)[nH]c3ncnc(OC)c23)c1` [Compound 17a], the inhibition at 1 µM stood at 96 ± 1% against BTK; 86% against ABL1-E255K; 86% against ABL2; 91 ± 2% against JAK3; 97 ± 2% against EGFR-wt; 89% at ACVR1B. Also, the inhibition at 1 µM was 77% against TXK, 89 ± 2% on EGFR-T790M, 96 ± 2% at EGFR-L861Q and 81 ± 1% at SRC. Moreover, on 100 kinases, the “kinases with inhibitory activity of ≥70%” value was 21 kinases and 8 mutant variants. Besides, the “concentration at which phosphorylation of EGFR and downstream proteins was reduced/inhibited” value in [1] is “around 100 nM”.
Consider `C=CC(=O)Nc1cccc(-c2c(-c3ccc(N4CCN(C)CC4)cc3)[nH]c3ncnc(OCC(C)C)c23)c1` [Compound 19h], for which, on EGFR-L858R/T790M, the Ki turned out to be 0.4 ± 0.1 nM, the maximal inactivation rate constant (kinact) was 0.00283 s⁻¹ and the second-order inactivation constant (kinact/KI) turned out to be 8.08e+06 ± 770000 M⁻¹ s⁻¹. Further, the fraction unbound at 6 h, 5 µM in [2] was 0.003. Moreover, on EGFR-L858R, the Ki was determined as 0.5 ± 0.1 nM, the inactivation rate constant (kinact) is 0.00467 s⁻¹ and the kinact/KI was 8.78e+06 ± 650000 M⁻¹ s⁻¹.
